Experimental data as given in PMC5218480 (PLoS ONE, 2017).

Test system: MV-4-11 cells
Assay: Gene expression microarray analysis (Affymetrix PrimeView) and GSEA
Assay type: cell-based, human
Set-up: RFU PODN (11730768_x_at) / Fold change /veh PODN (11730768_x_at) / RFU LINC00158 (11744669_a_at) / Fold change /veh LINC00158 (11744669_a_at) / RFU DUSP10 (11751237_a_at) / Fold change /veh DUSP10 (11751237_a_at) / RFU ID3 (11757404_x_at) / Fold change /veh ID3 (11757404_x_at) / RFU PLEKHG5 (11737974_s_at) / Fold change /veh PLEKHG5 (11737974_s_at) / RFU LRRC4B (11730491_at) / Fold change /veh LRRC4B (11730491_at) / RFU GIMAP4 (11747438_a_at) / Fold change /veh GIMAP4 (11747438_a_at) / RFU KRT8 (11758183_x_at) / Fold change /veh KRT8 (11758183_x_at) / RFU CNN1 (11734310_a_at) / Fold change /veh CNN1 (11734310_a_at) / RFU VPS37D (11726825_at) / Fold change /veh VPS37D (11726825_at) / RFU C10orf10 (11716522_x_at) / Fold change /veh C10orf10 (11716522_x_at) / RFU KIR2DL2 /// KIR2DL4 /// KIR2DL5A /// KIR2DL5B /// KIR2DS1 /// KIR2DS2 /// KIR2DS3 /// KIR2DS4 /// KIR3DL3 /// KIR3DL3 /// KIR3DS1 (11738374_at) / Fold change /veh KIR2DL2 /// KIR2DL4 /// KIR2DL5A /// KIR2DL5B /// KIR2DS1 /// KIR2DS2 /// KIR2DS3 /// KIR2DS4 /// KIR3DL3 /// KIR3DL3 /// KIR3DS1 (11738374_at) / RFU C1QL1 (11718748_at) / Fold change /veh C1QL1 (11718748_at) / RFU TMPRSS4 (11747572_a_at) / Fold change /veh TMPRSS4 (11747572_a_at) / RFU HAMP (11756126_x_at) / Fold change /veh HAMP (11756126_x_at) / RFU RNFT2 (11725882_a_at) / Fold change /veh RNFT2 (11725882_a_at) / RFU NR4A2 (11747474_a_at) / Fold change /veh NR4A2 (11747474_a_at) / RFU ABCC12 (11746883_a_at) / Fold change /veh ABCC12 (11746883_a_at) / RFU TMEM136 (11760407_x_at) / Fold change /veh TMEM136 (11760407_x_at) / RFU CLDN22 /// WWC2 (11732394_at) / Fold change /veh CLDN22 /// WWC2 (11732394_at) / RFU HLA-DPB1 (11760878_x_at) / Fold change /veh HLA-DPB1 (11760878_x_at) / RFU SPINT1 (11716480_a_at) / Fold change /veh SPINT1 (11716480_a_at) / RFU GAP43 (11754022_s_at) / Fold change /veh GAP43 (11754022_s_at) / RFU A4GNT (11735810_at) / Fold change /veh A4GNT (11735810_at) / RFU PRB3 (11715151_x_at) / Fold change /veh PRB3 (11715151_x_at) / RFU TUBB4B (11761932_at) / Fold change /veh TUBB4B (11761932_at) / RFU CAPN14 (11732068_a_at) / Fold change /veh CAPN14 (11732068_a_at) / RFU TMCC2 (11721928_a_at) / Fold change /veh TMCC2 (11721928_a_at) / RFU IRGQ (11745062_a_at) / Fold change /veh IRGQ (11745062_a_at) / RFU FAM174B (11720279_a_at) / Fold change /veh FAM174B (11720279_a_at) / RFU TMPRSS4 (11748680_a_at) / Fold change /veh TMPRSS4 (11748680_a_at) / RFU FAM212B (11763350_a_at) / Fold change /veh FAM212B (11763350_a_at) / RFU PLEKHG5 (11743358_a_at) / Fold change /veh PLEKHG5 (11743358_a_at) / RFU ZSCAN30 (11745921_a_at) / Fold change /veh ZSCAN30 (11745921_a_at) / RFU CMKLR1 (11741424_a_at) / Fold change /veh CMKLR1 (11741424_a_at) / RFU LOC101060620 /// MAPK8IP1 (11723275_at) / Fold change /veh LOC101060620 /// MAPK8IP1 (11723275_at) / RFU SPTSSB (11747773_x_at) / Fold change /veh SPTSSB (11747773_x_at) / RFU PRSS12 (11739890_at) / Fold change /veh PRSS12 (11739890_at) / RFU BIN1 (11741810_x_at) / Fold change /veh BIN1 (11741810_x_at) / RFU WNT11 (11732464_a_at) / Fold change /veh WNT11 (11732464_a_at) / RFU C10orf10 (11716521_a_at) / Fold change /veh C10orf10 (11716521_a_at) / RFU C5orf56 (11738089_at) / Fold change /veh C5orf56 (11738089_at) / RFU CYB561 (11721691_x_at) / Fold change /veh CYB561 (11721691_x_at) / RFU ANKRD19P (11752326_a_at) / Fold change /veh ANKRD19P (11752326_a_at) / RFU OR2T12 /// OR2T33 /// OR2T8 (11738714_s_at) / Fold change /veh OR2T12 /// OR2T33 /// OR2T8 (11738714_s_at) / RFU VCAN (11748164_a_at) / Fold change /veh VCAN (11748164_a_at) / RFU JSRP1 (11732532_at) / Fold change /veh JSRP1 (11732532_at) / RFU KRTAP10-11 (11738290_x_at) / Fold change /veh KRTAP10-11 (11738290_x_at) / RFU MYO3A (11730013_a_at) / Fold change /veh MYO3A (11730013_a_at) / RFU EBF3 (11725865_a_at) / Fold change /veh EBF3 (11725865_a_at) / RFU CAMK2N1 (11719241_x_at) / Fold change /veh CAMK2N1 (11719241_x_at) / RFU C5orf56 (11738088_a_at) / Fold change /veh C5orf56 (11738088_a_at) / RFU OLFML3 (11715873_a_at) / Fold change /veh OLFML3 (11715873_a_at) / RFU LOC100653217 /// NTM (11731650_a_at) / Fold change /veh LOC100653217 /// NTM (11731650_a_at) / RFU MAPK11 (11762145_a_at) / Fold change /veh MAPK11 (11762145_a_at) / RFU FIZ1 (11724087_x_at) / Fold change /veh FIZ1 (11724087_x_at) / RFU OASL (11726364_x_at) / Fold change /veh OASL (11726364_x_at) / RFU SOX15 (11748057_x_at) / Fold change /veh SOX15 (11748057_x_at) / RFU CD79A (11719716_a_at) / Fold change /veh CD79A (11719716_a_at) / RFU HIST1H1D (11736915_at) / Fold change /veh HIST1H1D (11736915_at) / RFU CASKIN2 (11723855_a_at) / Fold change /veh CASKIN2 (11723855_a_at) / RFU LOC730098 (11760151_x_at) / Fold change /veh LOC730098 (11760151_x_at) / RFU OR4N2 (11742367_at) / Fold change /veh OR4N2 (11742367_at) / RFU PRRT2 (11749266_a_at) / Fold change /veh PRRT2 (11749266_a_at) / RFU SNX32 (11753110_a_at) / Fold change /veh SNX32 (11753110_a_at) / RFU CDHR5 (11726645_a_at) / Fold change /veh CDHR5 (11726645_a_at) / RFU RCAN1 (11760418_a_at) / Fold change /veh RCAN1 (11760418_a_at) / RFU FAM167A (11723789_a_at) / Fold change /veh FAM167A (11723789_a_at) / RFU FAM26E (11764081_at) / Fold change /veh FAM26E (11764081_at) / RFU ISYNA1 (11749810_s_at) / Fold change /veh ISYNA1 (11749810_s_at) / RFU ACY1 (11761880_at) / Fold change /veh ACY1 (11761880_at) / RFU 11764098_at / Fold change /veh 11764098_at / RFU SAMD14 (11745864_x_at) / Fold change /veh SAMD14 (11745864_x_at) / RFU NPB (11741838_a_at) / Fold change /veh NPB (11741838_a_at) / RFU TMPRSS6 (11731388_a_at) / Fold change /veh TMPRSS6 (11731388_a_at) / RFU KRTAP10-2 (11738614_at) / Fold change /veh KRTAP10-2 (11738614_at) / RFU ARHGAP8 /// PRR5-ARHGAP8 (11727945_x_at) / Fold change /veh ARHGAP8 /// PRR5-ARHGAP8 (11727945_x_at) / RFU KRTAP5-7 /// NADSYN1 (11734609_at) / Fold change /veh KRTAP5-7 /// NADSYN1 (11734609_at) / RFU RASL12 (11751679_a_at) / Fold change /veh RASL12 (11751679_a_at) / RFU CDKN2B (11736163_a_at) / Fold change /veh CDKN2B (11736163_a_at) / RFU PRF1 (11729649_at) / Fold change /veh PRF1 (11729649_at) / RFU, ZNF638 /// ZNF638-IT1 / Fold change vs veh, ZNF638 /// ZNF638-IT1 / RFU, PANK3 / Fold change vs veh, PANK3 / RFU, SH3YL1 / Fold change vs veh, SH3YL1 / RFU, ZEB2 / Fold change vs veh, ZEB2 / RFU, NRIP1 / Fold change vs veh, NRIP1 / RFU, PTTG1IP / Fold change vs veh, PTTG1IP / RFU, CAPN2 / Fold change vs veh, CAPN2 / RFU, MED14 / Fold change vs veh, MED14 / RFU, SNORA58 / Fold change vs veh, SNORA58 / RFU, C1orf63 / Fold change vs veh, C1orf63 / RFU, LRRFIP1 / Fold change vs veh, LRRFIP1 / RFU, NDUFAF7 / Fold change vs veh, NDUFAF7 / RFU, SLC12A2 / Fold change vs veh, SLC12A2 / RFU, IBTK / Fold change vs veh, IBTK / RFU, ESF1 / Fold change vs veh, ESF1 / Fold change vs veh, TMEM50B / RFU, TAOK1 / Fold change vs veh, TAOK1 / RFU, ACBD3 / Fold change vs veh, ACBD3 / RFU, TMA16 / Fold change vs veh, TMA16 / RFU, RWDD3 / Fold change vs veh, RWDD3 / RFU, BCAT1 / Fold change vs veh, BCAT1 / RFU, EDEM3 / Fold change vs veh, EDEM3 / RFU, TMEM33 / Fold change vs veh, TMEM33 / RFU, WDR75 / Fold change vs veh, WDR75 / RFU, AHCTF1 / Fold change vs veh, AHCTF1 / RFU, TFRC / Fold change vs veh, TFRC / RFU, ZDHHC17 / Fold change vs veh, ZDHHC17 / RFU, NOM1 / Fold change vs veh, NOM1 / RFU, ARL8B / Fold change vs veh, ARL8B / RFU, ZBTB11 / Fold change vs veh, ZBTB11 / RFU, TAMM41 / Fold change vs veh, TAMM41 / RFU, KIAA1704 /// LOC100996395 / Fold change vs veh, KIAA1704 /// LOC100996395 / RFU, ING1 / Fold change vs veh, ING1 / RFU, TRMT61B / Fold change vs veh, TRMT61B / RFU, FUBP3 / Fold change vs veh, FUBP3 / RFU, TP53 / Fold change vs veh, TP53 / RFU, TNKS2 / Fold change vs veh, TNKS2 / RFU, ZFP14 / Fold change vs veh, ZFP14 / RFU, ACTR2 / Fold change vs veh, ACTR2 / RFU, PPP3R1 / Fold change vs veh, PPP3R1 / RFU, PIK3R1 / Fold change vs veh, PIK3R1 / RFU, HNRNPA1 / Fold change vs veh, HNRNPA1 / RFU, RNF170 / Fold change vs veh, RNF170 / RFU, ZNF28 / Fold change vs veh, ZNF28 / RFU, RNGTT / Fold change vs veh, RNGTT / RFU, OGT / Fold change vs veh, OGT / RFU, BRD1 / Fold change vs veh, BRD1 / RFU, MARS / Fold change vs veh, MARS / RFU, ZNF655 / Fold change vs veh, ZNF655 / RFU, FAHD1 / Fold change vs veh, FAHD1 / RFU, BDP1 / Fold change vs veh, BDP1 / RFU, LRRCC1 / Fold change vs veh, LRRCC1 / RFU, ARID1A / Fold change vs veh, ARID1A / RFU, ZNF146 / Fold change vs veh, ZNF146 / RFU, ZNF330 / Fold change vs veh, ZNF330 / RFU, GPN3 / Fold change vs veh, GPN3 / RFU, C9orf123 / Fold change vs veh, C9orf123 / RFU, N4BP2L2 / Fold change vs veh, N4BP2L2 / RFU, ARFIP1 / Fold change vs veh, ARFIP1 / RFU, FAM179B / Fold change vs veh, FAM179B / RFU, BCL10 / Fold change vs veh, BCL10 / RFU, UHRF1BP1L / Fold change vs veh, UHRF1BP1L / RFU, BET1 / Fold change vs veh, BET1 / RFU, CNOT2 / Fold change vs veh, CNOT2 / RFU, ZNF268 / Fold change vs veh, ZNF268 / Fold change vs veh, ZNF507 / RFU, DGCR2 / Fold change vs veh, DGCR2 / RFU, WDSUB1 / Fold change vs veh, WDSUB1 / Fold change vs veh, HSP90B1 /// MIR3652 / RFU, ADSS / Fold change vs veh, ADSS / RFU, GK / Fold change vs veh, GK / RFU, ZNF148 / Fold change vs veh, ZNF148 / RFU, TAF9 / Fold change vs veh, TAF9 / RFU, SLC1A5 / Fold change vs veh, SLC1A5 / RFU, SLMO2 / Fold change vs veh, SLMO2 / RFU, ABCC4 / Fold change vs veh, ABCC4 / RFU, LOC101060439 /// RAP1B / Fold change vs veh, LOC101060439 /// RAP1B / RFU, RFX7 / Fold change vs veh, RFX7 / RFU, GTPBP10 / Fold change vs veh, GTPBP10 / RFU, CNEP1R1 / Fold change vs veh, CNEP1R1 / RFU, BIVM-ERCC5 /// ERCC5 / Fold change vs veh, BIVM-ERCC5 /// ERCC5 / RFU, ILF3 / Fold change vs veh, ILF3 / RFU 11762660_at / Fold change /veh 11762660_at / RFU VCAN (11757783_s_at) / Fold change /veh VCAN (11757783_s_at) / RFU DDX43 (11728927_at) / Fold change /veh DDX43 (11728927_at) / RFU KRT8 (11758188_x_at) / Fold change /veh KRT8 (11758188_x_at) / RFU NKD1 (11759106_at) / Fold change /veh NKD1 (11759106_at) / RFU SRD5A1 (11742802_a_at) / Fold change /veh SRD5A1 (11742802_a_at) / RFU TPSAB1 /// TPSB2 (11721975_s_at) / Fold change /veh TPSAB1 /// TPSB2 (11721975_s_at) / RFU GSTM3 (11746129_a_at) / Fold change /veh GSTM3 (11746129_a_at) / RFU IL23R (11737362_x_at) / Fold change /veh IL23R (11737362_x_at) / RFU TMEM51 (11727254_a_at) / Fold change /veh TMEM51 (11727254_a_at) / RFU PIWIL2 (11732686_x_at) / Fold change /veh PIWIL2 (11732686_x_at) / RFU ORM1 (11744905_x_at) / Fold change /veh ORM1 (11744905_x_at) / RFU CCDC152 (11743942_at) / Fold change /veh CCDC152 (11743942_at) / RFU ECM1 (11717891_a_at) / Fold change /veh ECM1 (11717891_a_at) / RFU IL23R (11748794_a_at) / Fold change /veh IL23R (11748794_a_at) / RFU TNFAIP8L3 (11732012_x_at) / Fold change /veh TNFAIP8L3 (11732012_x_at) / RFU MBOAT4 (11741988_at) / Fold change /veh MBOAT4 (11741988_at) / RFU 11764193_at / Fold change /veh 11764193_at / RFU TMEM53 (11763286_at) / Fold change /veh TMEM53 (11763286_at) / RFU MAGEB2 (11727129_at) / Fold change /veh MAGEB2 (11727129_at) / RFU TMEM200A (11744735_a_at) / Fold change /veh TMEM200A (11744735_a_at) / RFU CCDC152 (11751479_a_at) / Fold change /veh CCDC152 (11751479_a_at) / RFU FAM211A (11726209_a_at) / Fold change /veh FAM211A (11726209_a_at) / RFU RGS16 (11746705_a_at) / Fold change /veh RGS16 (11746705_a_at) / RFU VCAN (11755009_s_at) / Fold change /veh VCAN (11755009_s_at) / RFU RHOB (11743442_s_at) / Fold change /veh RHOB (11743442_s_at) / RFU RGS16 (11720943_a_at) / Fold change /veh RGS16 (11720943_a_at) / RFU RGS16 (11720944_at) / Fold change /veh RGS16 (11720944_at) / RFU, VPS4B / Fold change vs veh, VPS4B / RFU, CREB1 / Fold change vs veh, CREB1 / RFU, DNAJC13 / Fold change vs veh, DNAJC13 / RFU, GNAQ / Fold change vs veh, GNAQ / RFU, CDK5R1 / Fold change vs veh, CDK5R1 / RFU, ZRANB3 / Fold change vs veh, ZRANB3 / RFU, CUL4A / Fold change vs veh, CUL4A / RFU, CCNY / Fold change vs veh, CCNY / RFU, UFL1 / Fold change vs veh, UFL1 / RFU, COG3 / Fold change vs veh, COG3 / RFU, DIAPH2 / Fold change vs veh, DIAPH2 / RFU, SKA2 / Fold change vs veh, SKA2 / RFU, AFF3 / Fold change vs veh, AFF3 / RFU, LMF1 / Fold change vs veh, LMF1 / RFU, IPO11 / Fold change vs veh, IPO11 / RFU, DFFB / Fold change vs veh, DFFB / RFU, FOXP1 / Fold change vs veh, FOXP1 / RFU, CARD8 / Fold change vs veh, CARD8 / RFU, STRN3 / Fold change vs veh, STRN3 / RFU, ADK / Fold change vs veh, ADK / RFU, RASSF2 / Fold change vs veh, RASSF2 / RFU, WIPF1 / Fold change vs veh, WIPF1 / RFU, LARP1B / Fold change vs veh, LARP1B / RFU, RASA1 / Fold change vs veh, RASA1 / RFU, RB1 / Fold change vs veh, RB1 / RFU, PPFIA1 / Fold change vs veh, PPFIA1 / RFU, MAT2A / Fold change vs veh, MAT2A / RFU, CCT5 / Fold change vs veh, CCT5 / RFU, WDR92 / Fold change vs veh, WDR92 / RFU, CUX1 / Fold change vs veh, CUX1 / RFU, TTC7A / Fold change vs veh, TTC7A / RFU, TMEM135 / Fold change vs veh, TMEM135 / RFU, DEPTOR / Fold change vs veh, DEPTOR / RFU, CPM / Fold change vs veh, CPM / RFU, DNAJB6 / Fold change vs veh, DNAJB6 / RFU, CACNA2D3 / Fold change vs veh, CACNA2D3 / RFU, DTX4 / Fold change vs veh, DTX4 / RFU, TFCP2 / Fold change vs veh, TFCP2 / RFU, GMCL1 /// GMCL1P1 / Fold change vs veh, GMCL1 /// GMCL1P1 / RFU, AEBP2 / Fold change vs veh, AEBP2 / RFU, SNHG1 /// SNORD22 /// SNORD25 /// SNORD26 /// SNORD27 /// SNORD28 /// SNORD29 /// SNORD31 / Fold change vs veh, SNHG1 /// SNORD22 /// SNORD25 /// SNORD26 /// SNORD27 /// SNORD28 /// SNORD29 /// SNORD31 / Fold change (Aza/veh), C12orf56 (ProbeSet 11735607_a_at) / Fold change (ACY-1035/veh), C12orf56 (ProbeSet 11735607_a_at) / Fold change (Aza/veh), FGFR1OP (ProbeSet 11751329_s_at) / Fold change (ACY-1035/veh), FGFR1OP (ProbeSet 11751329_s_at) / Fold change (Aza/veh), VPS36 (ProbeSet 11739960_a_at) / Fold change (ACY-1035/veh), VPS36 (ProbeSet 11739960_a_at) / RFU SYPL1 (11715823_x_at) / Fold change /veh SYPL1 (11715823_x_at) / RFU IGFBP7 (11715501_s_at) / Fold change /veh IGFBP7 (11715501_s_at) / RFU REEP3 (11722064_at) / Fold change /veh REEP3 (11722064_at) / RFU IGLL1 (11728026_x_at) / Fold change /veh IGLL1 (11728026_x_at): dose or concentration left out as unconfirmed
Conditions: ProbeSet 11728676_at; LIST B

Nc1ccc(-c2cccs2)cc1NC(=O)c1ccc2c(c1)cc(C1CC1)n2CCN1CCOCC1 [ACY-1035]
RFU, MED14: 202.11 RFU
